Data published in patent US8512708B2, “GP96 derived peptides” (Compugen Ltd., priority 2008, dated 2013).

Legend:
THP-1 cells = assay: LPS-induced TNF-α secretion from THP-1 cells (ELISA); assay type: cell-based, human; conditions: LPS 100 ng/ml, 4 hours
Experimental: THP-1 cells were seeded at 2×10^5 cells/ml in 100 μl of media (RPMI-1640 medium+10% FBS) in a 96 well plates. The reconstituted peptide at final concentrations of 20, 60, 180, 540, 1620, 4860 or 14580 nM were added to the relevant wells in a volume of 100 μl and LPS at a final concentration of 100 ng/ml (Sigma, Cat # L-6529, Lot #054K4022, stock concentration of 1 mg/ml) was added to the wells in a volume of 100 μl. Plates were incubated for 4 hours and then centrifuged 5 minutes at 4000 rpm. Conditioned medium (200 μl) was transferred to new plates and kept at −20° C. The concentration of TNF-α was measured using TNF-α ELISA (R&D Systems, Human TNF-alpha Quantikine ELISA Kit, Cat # STA00C).
THP-1 cells were seeded at 2×10^5 cells/ml in 100 μl of media (RPMI-1640 medium+10% FBS) in 96 well plates. The reconstituted peptide at final concentrations of 0.3, 1, 10, 30 or 60 μg/ml were added to the relevant wells in a volume of 100 μl and LPS at a final concentration of 100 ng/ml (Sigma, Cat # L-6529, Lot #054K4022, stock concentration of 1 mg/ml) was added to the wells in a volume of 100 Plates were incubated for 4 hours and then centrifuged 5 minutes at 4000 rpm. Conditioned medium (200 μl) was transferred to new plates and kept at −20° C. The concentration of TNF-α was measured using TNF-α ELISA (R&D Systems, Human TNF-alpha Quantikine ELISA Kit, Cat # STA00C).

A549 cells = assay type: cell-based, human; conditions: 48 hours, MTT, 0.3-90 μg/ml peptide
Experimental: (§1) A549 cells were seeded at 6000 cells/well in 200 μA of media (DMEM medium+5% FBS) in a 96 well plate and incubated over-night (O.N). Cells were starved in 100 μl of serum free medium (SFM) containing 0.1% FBS, O.N. All lyophilized peptides were dissolved in H2O (prewarmed to 50° C.) and hand-stirred, giving a final concentration of 1 mg/ml. Reconstituted peptides were added in concentrations of 0.3, 1, 3, 10, 30 or 90 μg/ml and the cells were incubated for 48 hours.
(§2) Cell proliferation was measured using MTT assay as follows: 20 μl of MTT solution ((3-[4,5-Dimethyl-2-thiazolyl]-2,5-diphenyl-2H-tetrazolium bromide, Sigma Cat#M5655, lot#085k5322, 1 gr was dissolved in 200 ml H2O and filtered, giving a final concentration of 5 mg/ml) were added to each well for 4 hrs, after which the medium was vacuumed and 100 μl of DMSO were added to each well. Absorbance was measured in an ELISA reader at 492 nm. The results are shown in FIG. 8, and depicted in percent relative to untreated cells (which was defined as 100).

MCF7 = assay: Proliferation of MCF7 cells (MTT assay); assay type: cell-based, human; conditions: MCF7, 48 hours, 0.003-60 μg/ml peptide
Experimental: as §1, with “Cells” for “A549 cells”, “5000” for “6000”, “μl” for “μA”, “0.003, 0.009, 0.028, 0.084, 0.25, 0.76, 2.28, 6.66, 20 and 60” for “0.3, 1, 3, 10, 30 or 90”
as §2, with “assay:” for “assay as follows:”, “nm.” for “nm. The results are shown in FIG. 8, and depicted in percent relative to untreated cells (which was defined as 100).”

SW480 = assay: Proliferation of SW480 cells (MTT assay); assay type: cell-based, human; conditions: SW480, 48 hours, 0.003-60 μg/ml peptide
Experimental: as §1, with “Cells” for “A549 cells”, “5000” for “6000”, “μl” for “μA”, “0.003, 0.009, 0.028, 0.084, 0.25, 0.76, 2.28, 6.66, 20 and 60” for “0.3, 1, 3, 10, 30 or 90”
as §2, with “assay:” for “assay as follows:”, “nm.” for “nm. The results are shown in FIG. 8, and depicted in percent relative to untreated cells (which was defined as 100).”

HT29 = assay: Proliferation of HT29 cells (MTT assay); assay type: cell-based, human; conditions: HT29, 48 hours, 0.003-60 μg/ml peptide
Experimental: as §1, with “Cells” for “A549 cells”, “5000” for “6000”, “μl” for “μA”, “0.003, 0.009, 0.028, 0.084, 0.25, 0.76, 2.28, 6.66, 20 and 60” for “0.3, 1, 3, 10, 30 or 90”
as §2, with “assay:” for “assay as follows:”, “nm.” for “nm. The results are shown in FIG. 8, and depicted in percent relative to untreated cells (which was defined as 100).”

HCT116 = assay: Proliferation of HCT116 cells (MTT assay); assay type: cell-based, human; conditions: HCT116, 48 hours, 0.003-60 μg/ml peptide
Experimental: as §1, with “Cells” for “A549 cells”, “5000” for “6000”, “μl” for “μA”, “0.003, 0.009, 0.028, 0.084, 0.25, 0.76, 2.28, 6.66, 20 and 60” for “0.3, 1, 3, 10, 30 or 90”
as §2, with “assay:” for “assay as follows:”, “nm.” for “nm. The results are shown in FIG. 8, and depicted in percent relative to untreated cells (which was defined as 100).”

human PBMCs = assay: Anti-CD3-induced cytokine release from human PBMCs (Luminex); assay type: cell-based; conditions: PBMCs treated with anti-CD3 antibody (1 μg/ml), 48 hours; peptide 30 μg/ml=6 μM (FIG. 2)
Experimental: Peptides were assayed at two concentrations (3 and 30 ug/mL) in duplicates. Cryopreserved PBMCs were drip-thaw and seeded at 1×10^4 cells/well in 140 μl of media per well. Cells were incubated for 1 hour at 37° C. at 5% CO2 and a peptide of the invention or Dexamethasone as a control, were added in 20 μl of medium. Cells were incubated for 30 minutes and anti-CD3 antibody (1 μg/ml) was added at the appropriate concentration in 40 μl of medium. Plates were incubated for 48 hours, spinned at 1200 rpm for 10 minutes and supernatants were collected and stored at −80° C. Cytokines' concentration was measured using a Luminex analyzer (IS100, Luminex Corporation) and bead-based reagents (Upstate Biotechnology).

Molecule | inhibition of LPS-induced TNF-α secretion (THP-1 cells; 30 μg/ml peptide) [%] | inhibition of proliferation, dose dependence (A549 cells) | inhibition of proliferation, dose dependence (MCF7) | inhibition of proliferation, dose dependence (SW480) | inhibition of LPS-induced TNF-α secretion (THP-1 cells; 10 μg/ml peptide) [%] | inhibition of proliferation, dose dependence (HT29) | inhibition of proliferation, dose dependence (HCT116) | decrease of IL-1α (human PBMCs) [%] | decrease of IL-1β (human PBMCs) [%] | decrease of IL-2 release (human PBMCs) [%] | decrease of IL-12p40 (human PBMCs) [%] | decrease of IL-12p70 (human PBMCs) [%] | decrease of TNFα (human PBMCs) | inhibition of GM-CSF release (human PBMCs)
CC[C@H](C)[C@H](NC(=O)[C@H](CCCCN)NC(=O)[C@H](CCCCN)NC(=O)[C@@H](NC(=O)[C@H](CCSC)NC(=O)[C@H](CC(=O)O)NC(=O)[C@H](CC(C)C)NC(=O)[C@@H](NC(=O)[C@H](CCCCN)NC(=O)[C@H](CCCNC(=N)N)NC(=O)[C@@H](NC(=O)[C@H](CC(C)C)NC(=O)[C@H](CCCCN)NC(=O)[C@H](CCCCN)NC(=O)[C@H](CCCNC(=N)N)NC(=O)[C@@H](NC(=O)[C@@H](NC(=O)[C@H](CCCCN)NC(=O)[C@H](CC(C)C)NC(=O)[C@H](CC(C)C)NC(=O)[C@H](CCCCN)NC(=O)[C@H](Cc1c[nH]cn1)NC(=O)[C@H](CCC(N)=O)NC(=O)[C@H](CCC(N)=O)NC(=O)[C@H](CC(C)C)NC(=O)[C@@H](NC(C)=O)[C@@H](C)O)C(C)C)[C@@H](C)CC)C(C)C)[C@@H](C)O)[C@@H](C)CC)C(=O)N[C@@H](C)C(=O)N[C@@H](CC(=O)O)C(=O)N[C@@H](CC(=O)O)C(=O)N[C@@H](CCCCN)C(=O)N[C@@H](Cc1ccc(O)cc1)C(N)=O [CGEN-GP4] | 100 | dose-dependent |  |  |  |  |  |  |  |  |  |  |  | 
Ac-HKLLKVIRKKLVRKTLDMIKKIADDKYNDTFWKEF-NH2 [CGEN-GP5] |  | dose-dependent | dose-dependent | dose-dependent | 100 | dose-dependent | dose-dependent |  |  |  |  |  |  | 
IYVWSSKTETVEEPMEEEEAAKEEKEESDDEA (Ac-IYVWSSKTETVEEPMEEEEAAKEEKEESDDEA-NH2) [CGEN-GP3] |  |  |  |  |  |  |  | 30 | 60 | 70 | 40 | 70 | approximately 30% | no effect
